Source: patent US7205433B2, “Crystal of amino acid ester salt and process for producing the same” (Ajinomoto Co., Inc., priority 2002, dated 2007)

What was measured:
Type in all cases: physicochemical
[1] = Experimental Example 5: comparison of hygroscopicity by weight gain over time (60 to 66% RH); settings: 24 EC
Protocol: The L-Ala-OMe HCl salt, L-Ala-OEt MsOH salt, L-Ala-OEt BsOH salt, L-Ala-OEt 4-CBS salt, L-Ala-OEt 4-EBS salt, L-Ala-OEt 2,4-DMBS salt, and L-Ala-OEt 2,5-DMBS salt were measured in an amount of about 0.3 g each, left standing in a thermostatic chamber at a temperature of 24 EC and a humidity of 60 to 66% RH, and the hygroscopicity was compared based on the weight gain with the lapse of time.

[2] = Experimental Example 2: comparison of hygroscopicity by weight gain over time (62 to 64% RH); settings: 24° C.
Protocol: In the same manner as in Experimental Example 1, L-Ala-OEt MsOH salt and L-Ala-OMe HCl salt were measured into a glass container in an amount of 0.6 g each, left under conditions of temperature: 24° C., humidity: 62 to 64% RH, and then the hygroscopicity was compared based on the weight gain with the lapse of time.

[3] = Experimental Example 1: comparison of hygroscopicity by weight gain over time (44 to 45% RH); settings: 22 to 24° C.
Protocol: L-Ala-OEt HCl salt and L-Ala-OEt MsOH salt were measured into in a glass container in an amount of 1.6 g each, dried in vacuo at 30° C. for 5 hours, left under conditions of temperature: 22 to 24° C., humidity: 44 to 45% RH, and then the hygroscopicity was compared based on the weight gain over the lapse of time. […] The liquefied portion increased with the lapse of time, and the entire salt became liquid 750 minutes later with no observable crystal.

[4] = Experimental Example 4: comparison of hygroscopicity by weight gain over time (40 to 46% RH); settings: 24° C.
Protocol: The L-Ala-OEt HCl salt, L-Ala-OEt MsOH salt, L-Ala-OEt BsOH salt, L-Ala-OEt 4-CBS salt, L-Ala-OEt 4-EBS salt, L-Ala-OEt 2,4-DMBS salt, and L-Ala-OEt 2,5-DMBS salt were measured in an amount of about 0.3 g each, left standing in a thermostatic chamber at a temperature of 24° C. and a humidity of 40 to 46% RH, and the hygroscopicity was compared based on the weight gain with the lapse of time. A part of the crystal of the L-Ala-OEt HCl salt was liquefied in 30 minutes, and the liquefied portion increased thereafter with the lapse of time. After 100 minutes, the whole mass became like a sherbet.

[5] = Comparative Example 9: crystals left standing at room temperature; settings: left standing at room temperature for a while
Description: The crystals were separated and dried to give L-alanine methyl ester benzenesulfonate (L-Ala-OMe BsOH salt) crystals. The crystals were left standing at room temperature for a while.

CCOC(=O)[C@H](C)N.CS(=O)(=O)O [L-Ala-OEt MsOH salt, L-alanine ethyl ester methanesulfonate]
weight increase rate (%) ([1]; 0 minutes): 0.00% | weight increase rate (%) ([1]; 10 minutes): 0.32% | weight increase rate (%) ([1]; 20 minutes): 0.35% | weight increase rate (%) ([1]; 35 minutes): 0.38% | weight increase rate (%) ([1]; 50 minutes): 0.38% | weight increase rate (%) ([1]; 65 minutes): 0.41% | weight increase rate (%) ([1]; 80 minutes): 0.44% | weight increase rate (%) ([1]; 95 minutes): 0.44% | weight increase rate (%) ([1]; 110 minutes): 0.48% | weight increase rate (%) ([1]; 125 minutes): 0.44% | weight increase rate (%) ([1]; 140 minutes): 0.48% | weight increase rate (%) ([1]; 155 minutes): 0.48% | weight increase rate (%) ([1]; 170 minutes): 0.51% | weight increase rate (%) ([1]; 185 minutes): 0.48% | weight increase rate (%) ([1]; 200 minutes): 0.51% | weight increase rate (% relative to initial weight) ([2]; 0 minutes): 0.00% | weight increase rate (% relative to initial weight) ([2]; 10 minutes): 0.18% | weight increase rate (% relative to initial weight) ([2]; 20 minutes): 0.26% | weight increase rate (% relative to initial weight) ([2]; 35 minutes): 0.39% | weight increase rate (% relative to initial weight) ([2]; 50 minutes): 0.53% | weight increase rate (% relative to initial weight) ([2]; 65 minutes): 0.55% | weight increase rate (% relative to initial weight) ([2]; 80 minutes): 0.63% | weight increase rate (% relative to initial weight) ([2]; 95 minutes): 0.70% | weight increase rate (% relative to initial weight) ([2]; 110 minutes): 0.78% | weight increase rate (% relative to initial weight) ([2]; 125 minutes): 0.94% | weight increase rate (% relative to initial weight) ([2]; 140 minutes): 1.01% | weight increase rate (% relative to initial weight) ([2]; 155 minutes): 1.00% | weight increase rate (% relative to initial weight) ([2]; 170 minutes): 1.13% | weight increase rate (% relative to initial weight) ([2]; 185 minutes): 1.26% | weight increase rate (% relative to initial weight) ([2]; 200 minutes): 1.32% | change in weight with the lapse of time ([2]; up to 200 minutes): not much change in weight | liquefaction ([2]; up to 200 minutes): liquefaction was not observed | weight increase rate (% relative to initial weight) ([3]; 0 minutes): 0.00% | weight increase rate (% relative to initial weight) ([3]; 1 minutes): 0.08% | weight increase rate (% relative to initial weight) ([3]; 2 minutes): 0.11% | weight increase rate (% relative to initial weight) ([3]; 3 minutes): 0.17% | weight increase rate (% relative to initial weight) ([3]; 4 minutes): 0.17% | weight increase rate (% relative to initial weight) ([3]; 6 minutes): 0.23% | weight increase rate (% relative to initial weight) ([3]; 10 minutes): 0.36% | weight increase rate (% relative to initial weight) ([3]; 15 minutes): 0.41% | weight increase rate (% relative to initial weight) ([3]; 25 minutes): 0.48% | weight increase rate (% relative to initial weight) ([3]; 35 minutes): 0.56% | weight increase rate (% relative to initial weight) ([3]; 50 minutes): 0.58% | weight increase rate (% relative to initial weight) ([3]; 60 minutes): 0.59% | weight increase rate (% relative to initial weight) ([3]; 75 minutes): 0.63% | weight increase rate (% relative to initial weight) ([3]; 90 minutes): 0.57% | weight increase rate (% relative to initial weight) ([3]; 120 minutes): 0.58% | weight increase rate (% relative to initial weight) ([3]; 150 minutes): 0.58% | weight increase rate (% relative to initial weight) ([3]; 180 minutes): 0.61% | weight increase rate (% relative to initial weight) ([3]; 750 minutes): 1.16% | change in weight with the lapse of time ([3]; up to 750 minutes): almost no change in weight | liquefaction ([3]; up to 750 minutes): liquefaction was not observed | weight increase rate (%) ([4]; 0 minutes): 0.00% | weight increase rate (%) ([4]; 15 minutes): 0.03% | weight increase rate (%) ([4]; 30 minutes): 0.03% | weight increase rate (%) ([4]; 45 minutes): 0.00% | weight increase rate (%) ([4]; 60 minutes): 0.19% | weight increase rate (%) ([4]; 75 minutes): 0.35% | weight increase rate (%) ([4]; 90 minutes): 0.35% | weight increase rate (%) ([4]; 120 minutes): 0.42% | weight increase rate (%) ([4]; 150 minutes): 0.39% | weight increase rate (%) ([4]; 180 minutes): 0.55%

COC(=O)[C@H](C)N.O=S(=O)(O)c1ccccc1 [L-Ala-OMe BsOH salt, L-alanine methyl ester benzenesulfonate]
stability of the crystals [5]: the crystals were liquefied and failed to provide stable crystals
